Consider 11 molecules from patent US20040063580A1, “Bicyclic triazolone derivatives and a herbicides containing the same” (priority 2000, published 2004).

The structures appear in SMILES notation.

As usually defined, the melting point is the temperature, or range, at which the solid turns liquid.

The test system of one data set is velvetleaf. In words: Herbicidal effects against weeds (post emergence), velvetleaf. In kind it is in vivo. As to conditions: post emergence spray, evaluated two weeks after treatment. As to the method: (§1) Herbicidal Effects Against Weeds (Post Emergence)
(§2) After filling 300 g field soil in jiffypot™ having diameter of 10 cm, the soil was steam sterilized. Seeds of velvetleaf, redroot pigweed, tall morningglory and corn onto the surface of the soil were scattered, and then covered with the soil to a thickness of 0.5 cm for the weed, 1 cm for the crop. When the weed and the crop reached the designated growth stage, they were treated with the compound to be tested.
(§3) Preparation of the Test Solution and the Method of Treatment
(§4) The compound to be tested was dissolved in acetone which contain Tween 20™ and diluted with deionized water to prepare the test solution for 10 g/a and 1 g/a use. The test solution was sprayed on the pots in a device for spraying using spraygun.
(§5) Method of Indicating the Effect and Phytotoxicity
(§6) The effect of the compound tested on the weeds and phytotoxicity on the crops were evaluated two weeks after treatment with the compound as 6 grades from 0 to 5 shown in the Table 9 and 10.
(§7) In the Table 11 and 12, the herbicidal effects were indicated by the following evaluation index.

The next data set concerns tall morningglory. Briefly: Herbicidal effects against weeds (post emergence), tall morningglory. In kind it is in vivo. To be noted: post emergence spray, evaluated two weeks after treatment. As for the experimental part: as §1, §2, §3, §4, §5, §6, §7
A further data set deals with corn. Briefly: Post emergence test, phytotoxicity on the crop corn. In kind it is in vivo. As to conditions: post emergence spray, evaluated two weeks after treatment. As for the experimental part:
as §1, §2, §3, §4, §5, §6
The phytotoxicity was indicated by the following evaluation index.

Another data set relates to redroot pigweed. In words: Herbicidal effects against weeds (post emergence), redroot pigweed. In kind it is in vivo. As to conditions: post emergence spray, evaluated two weeks after treatment. As to the method:
as §1, §2, §3, §4, §5, §6, §7

Turning to `CCOC(=O)CSc1cc(-n2nc3ccc(Cl)cn3c2=O)c(F)cc1C#N` [A-19], the “Evaluation index Velvet leaf” value in the data set with velvetleaf (10 g/a) is recorded as 5 (maximum *all dead) 100). Further, the “Evaluation index Tall morning glory” value with tall morningglory (10 g/a) is listed as 5 (maximum *all dead) 100).
As for `Cc1cc2c(-n3nc4ccc(Cl)cn4c3=O)c(F)cc(Cl)c2o1` [A-62, 6-Chloro-2-(7-chloro-5-fluoro-2-methylbenzofuran-4-yl)-1,2,4-triazolo[4,3-a]pyridin-3(2H)-one], the melting point was 205 to 207 °C. Also, the “Evaluation index Corn (phytotoxicity)” value with corn (1 g/a) is 1 (small 0.1 to 12.5). Also, in the data set on corn (10 g/a), the “Evaluation index Corn (phytotoxicity)” value is listed as 1 (small 0.1 to 12.5). For the same molecule, in the data set with velvetleaf (1 g/a), the “Evaluation index Velvet leaf” value is on record as 5 (maximum *all dead) 100). In the data set on velvetleaf (10 g/a), the “Evaluation index Velvet leaf” value is 5 (maximum *all dead) 100). Also, in the data set on redroot pigweed (1 g/a), the “Evaluation index Redroot pigweed” value is given as 5 (maximum *all dead) 100). For the same molecule, the “Evaluation index Redroot pigweed” value in the data set with redroot pigweed (10 g/a) is given as 5 (maximum *all dead) 100).
For the molecule `CCOC(=O)COc1cc(-n2nc3ccc(Cl)cn3c2=O)c(F)cc1Cl` [A-27], the “Evaluation index Velvet leaf” value in the data set on velvetleaf (10 g/a) is listed as 5 (maximum *all dead) 100). In addition, the “Evaluation index Tall morning glory” value with tall morningglory (10 g/a) is 5 (maximum *all dead) 100).
With `CCS(=O)(=O)Nc1cc(-n2nc3ccc(Cl)cn3c2=O)c(F)cc1C#N` [Compound No. A-3, 6-Chloro-2-(4-cyano-5-ethanesulfonylamino-2-fluorophenyl)-1,2,4-triazolo[4,3-a]pyridin-3(2H)-one], the melting point fell in the range of 220 to 222 °C. The “Evaluation index Corn (phytotoxicity)” value with corn (1 g/a) was 1 (small 0.1 to 12.5). The “Evaluation index Velvet leaf” value in the data set on velvetleaf (1 g/a) was 5 (maximum *all dead) 100). Besides, the “Evaluation index Tall morning glory” value with tall morningglory (1 g/a) is reported as 4 (maximum 87.6 to 99.9).
As to `CCS(=O)(=O)Nc1cc(-n2nc3ccc(C)cn3c2=O)c(F)cc1C#N` [A-50], the “Evaluation index Velvet leaf” value in the data set with velvetleaf (10 g/a) was 5 (maximum *all dead) 100). The “Evaluation index Tall morning glory” value in the data set on tall morningglory (10 g/a) was 5 (maximum *all dead) 100).
The molecule `CCS(=O)(=O)N(C(C)=O)c1cc(-n2nc3ccc(Cl)cn3c2=O)c(F)cc1C#N` [Compound No. A-6, 2-[5-(N-acetyl-N-ethanesulfonylamino)-4-cyano-2-fluorophenyl]-6-chloro-1,2,4-triazolo[4,3-a]pyridin-3(2H)-one] gave a melting point of 220 to 222 °C. The “Evaluation index Corn (phytotoxicity)” value in the data set on corn (10 g/a) is 1 (small 0.1 to 12.5). In the data set with velvetleaf (10 g/a), the “Evaluation index Velvet leaf” value was 5 (maximum *all dead) 100). For the same molecule, in the data set on redroot pigweed (10 g/a), the “Evaluation index Redroot pigweed” value is given as 5 (maximum *all dead) 100).
In turn, `C#CCOc1cc(-n2nc3ccc(Cl)cn3c2=O)c(F)cc1Cl` [Compound No. A-25, 6-Chloro-2-(4-chloro-2-fluoro-5-propargyloxyphenyl)-1,2,4-triazolo[4,3-a]pyridin-3(2H)-one] yielded a melting point of 145 to 148 °C. In addition, the “Evaluation index Corn (phytotoxicity)” value in the data set with corn (1 g/a) is given as 0 (no effect 0). Further, the “Evaluation index Corn (phytotoxicity)” value in the data set on corn (10 g/a) is listed as 1 (small 0.1 to 12.5). Moreover, in the data set on velvetleaf (1 g/a), the “Evaluation index Velvet leaf” value is given as 5 (maximum *all dead) 100). Besides, the “Evaluation index Velvet leaf” value with velvetleaf (10 g/a) is reported as 5 (maximum *all dead) 100). Besides, the “Evaluation index Tall morning glory” value in the data set with tall morningglory (1 g/a) is 5 (maximum *all dead) 100). Also, the “Evaluation index Tall morning glory” value with tall morningglory (10 g/a) is given as 5 (maximum *all dead) 100).
As for `CCS(=O)(=O)Nc1cc(-n2nc3c(Cl)cccn3c2=O)c(F)cc1C#N` [A-48], the “Evaluation index Velvet leaf” value in the data set on velvetleaf (10 g/a) was 5 (maximum *all dead) 100). Also, the “Evaluation index Tall morning glory” value with tall morningglory (10 g/a) was 5 (maximum *all dead) 100).
`CCOC(=O)COC(=O)c1cc(-n2nc3ccc(Cl)cn3c2=O)c(F)cc1Cl` [Compound No. A-34, Ethoxycarbonylmethyl 2-chloro-4-fluoro-5-(6-chloro-2,3-dihydro-3-oxo-1,2,4-triazolo[4,3-a]pyridin-2-yl)benzoate] returned a melting point of 62 to 65 °C. Further, the “Evaluation index Corn (phytotoxicity)” value in the data set on corn (1 g/a) was 1 (small 0.1 to 12.5). In addition, in the data set on velvetleaf (1 g/a), the “Evaluation index Velvet leaf” value is 4 (maximum 87.6 to 99.9). Besides, the “Evaluation index Redroot pigweed” value with redroot pigweed (1 g/a) is 5 (maximum *all dead) 100).
The molecule `C#CCOc1cc(-n2nc3n(c2=O)CCCN3)c(F)cc1Cl` [Compound No. F-1, 5,6,7,8-Tetrahydro-2-(4-chloro-2-fluoro-5-propargyloxyphenyl)-[1,2,4]triazolo[4,3-a]pyrimidin-3(2H)-one] showed a melting point of 172 to 174 °C. Also, in the data set with corn (1 g/a), the “Evaluation index Corn (phytotoxicity)” value was 3 (big 25.1 to 50.0). Besides, in the data set with corn (10 g/a), the “Evaluation index Corn (phytotoxicity)” value is listed as 3 (big 25.1 to 50.0). Moreover, the “Evaluation index Velvet leaf” value with velvetleaf (1 g/a) is on record as 4 (maximum 87.6 to 99.9). Besides, in the data set on velvetleaf (10 g/a), the “Evaluation index Velvet leaf” value was 5 (maximum *all dead) 100). In addition, in the data set with redroot pigweed (1 g/a), the “Evaluation index Redroot pigweed” value is listed as 5 (maximum *all dead) 100). Moreover, the “Evaluation index Redroot pigweed” value with redroot pigweed (10 g/a) is 5 (maximum *all dead) 100).
The molecule `CCS(=O)(=O)Nc1cc(-n2nc3n(c2=O)CCCS3)c(F)cc1C#N` [Compound No. E-1, 5,6-Dihydro-2-(4-cyano-5-ethylsulfonylamino-2-fluorophenyl)-7H-[1,2,4]triazolo[3,4-b][1,3]thiazin-3(2H)-one] had a melting point of 193 to 195 °C. Also, the “Evaluation index Corn (phytotoxicity)” value with corn (1 g/a) is given as 1 (small 0.1 to 12.5). Moreover, in the data set on corn (10 g/a), the “Evaluation index Corn (phytotoxicity)” value is 1 (small 0.1 to 12.5). The “Evaluation index Velvet leaf” value in the data set on velvetleaf (1 g/a) is given as 5 (maximum *all dead) 100). For the same molecule, the “Evaluation index Velvet leaf” value in the data set with velvetleaf (10 g/a) is 5 (maximum *all dead) 100). For the same molecule, in the data set with redroot pigweed (1 g/a), the “Evaluation index Redroot pigweed” value is 5 (maximum *all dead) 100). The “Evaluation index Redroot pigweed” value in the data set with redroot pigweed (10 g/a) was 5 (maximum *all dead) 100).
